Consider 22 molecules from patent US11986522B2, “Immunotherapeutic composition and uses thereof” (ARAVAX PTY LTD, priority 2013, dated 2024).

Entries after “also recorded” stand apart in the source; their conditions may differ. No end group written: not given here.

The subject of one data set is HLA-DR, HLA-DQ, HLA-DP. The data set can be described thus: HLA class II blocking assays (anti-HLA mAb, TCL proliferation). The data set is classed as cell-based, human. Conditions: for antibody that blocked T cell recognition of the epitope: Ara h 2 epitopes. As for the experimental part: Materials and Methods Subjects: Peanut-allergic adult subjects were recruited from The Alfred Allergy Clinic, Melbourne, Australia. […] Some subjects were genotyped (HLA-DRB1, -DQB1 and -DPB1, exon 2) by the Victorian Transplantation and Immunogenetics Service. The study was approved by The Alfred and Monash University Ethics Committees and informed written consent obtained from each subject. Antigens: Crude peanut extract (CPE) was prepared from commercial unsalted, dry-roasted peanuts as described elsewhere, (de Leon et al. Clin Exp Allergy. 2003; 33(9):1273-80) dialyzed against phosphate-buffered saline (PBS) and filter-sterilized (0.2 μm). Natural Ara h 1 and Ara h 2 were enriched from CPE based on published methodology. (de Jong E C et al. Clin Exp Allergy. 1998; 28(6):743-51) Briefly, CPE was buffer exchanged into 20 mM TRIS-bis-propane (TBP), pH 7.2, using Vivaspin columns (Sartorius Stedim Biotech S.A., Aubagne, France) and applied onto a 5 mL Mono-Q 10/10 column (Pharmacia FPLC System, St Albans, UK) equilibrated with TBP. After washing with TBP, a linear gradient of 30 mL 0-1 M NaCl/TBP was applied to elute bound proteins (1 mL/min). Fractions, 0.5 mL, were analyzed by SDS-PAGE and those containing Ara h 1 or Ara h 2 with minimal other proteins pooled and dialyzed against PBS. Endotoxin contents were 1.7, 4.0 and 78.0 EU/mg for CPE, Ara h 1 and Ara h 2 respectively (Endpoint Chromogenic LAL assay, Lonza, Walkersville, USA). Peptides (Mimotopes, Victoria, Australia and GenScript USA Inc, New Jersey, USA) were reconstituted at 1-4 mg/ml in 10% dimethyl sulfoxide/PBS (20-mers and truncated peptide sets) or PBS, 1-2% acetic acid or 0.1M ammonium bicarbonate buffers as specified (custom-synthesized core epitope peptides). All antigens were confirmed to be neither mitogenic nor toxic as described (Eusebius N P et al., Int Arch Allergy Immunol. 2002; 127(3):234-44). Generation of Ara h 1 and Ara h 2-specific CD4+ T-cell lines (TCL): Ara h 1 or Ara h 2-specific oligoclonal TCL were generated from peripheral blood mononuclear cells (PBMC) of peanut-allergic subjects using 5,6-carboxyfluorescein diacetate succinimidylester (CFSE)-based methodology. (Mannering S I et al., J Immunol Methods. 2005; 298(1-2):83-92; Prickett S R, et al., J Allergy Clin Immunol. 2011; 127(3):608-15 el-5). Briefly, culturing was performed in RPMI-1640 containing 2 mM L-glutamine, 100 IU/mL penicillin-streptomycin and 5% human AB serum (Sigma-Aldrich, St Louis, USA) (cRPMI). PBMC were labelled with 0.1 μM CFSE (Molecular Probes, Eugene, USA) and cultured (2.5×10^6/mL) with cRPMI alone, CPE (100 μg/mL), Ara h 1 or Ara h 2 (10 μg/mL), Ara h 1 or Ara h 2 20-mer-peptide pools (10 μg/mL/peptide) or as a control, tetanus toxoid (TT; 10 LfU/mL; Statens Serum Institute, Copenhagen, Denmark) for 7 days at 37° C. After staining with CD4-PE and 7AAD (BD Pharmingen, San Diego, USA), CD4+CFSEdim7AAD-cells were sorted (10 cells/well) into 96-U-well plates containing irradiated allogeneic feeder-cells, anti-CD3 (OKT-3), rIL-2 (Cetus, Emeryville, USA) and Fungizone (Invitrogen, Carlsbad, USA) as described. Cells were fed with rIL-2 as required and after 10-14 days, transferred to 48-well plates and tested for proliferation to Ara h 1 or Ara h 2 (10 μg/mL). Ara h 1 or Ara h 2-positive TCL were expanded with anti-CD3 and rIL-2 in T25 culture flasks (BD, Franklin Lakes, USA) for 10-12 days then tested for specificity (proliferation) to overlapping 20-mer peptides spanning the respective sequence (10 μg/mL). Core epitope sequences were mapped within selected 20-mers using peptide sets truncated from the N- or C-terminus of the 20-mer as described (Prickett S R, et alc. J Allergy Clin Immunol. 2011; 127(3):608-15 el-5). T-cell assays:All culturing was performed in RPMI-1640 containing 2 mM L-glutamine, 100 IU/mL penicillin-streptomycin and 5% heat-inactivated human AB serum (Sigma-Aldrich, St Louis, USA) (cRPMI). […]

Data set [1] deals with HLA-DRB1, -DQB1 and -DPB1. The data set can be described thus: HLA-genotyping of subjects whose TCL recognise the epitopes. Further details: species or system human. Conditions: for HLA allele presenting the epitope / present in all recognising subjects: HLA-typed subjects; for HLA-binding degeneracy (presented by): no shared allele between responding subjects.
In data set [2] the test system is PBMC CD4+ T cells of peanut-allergic subjects. Briefly: 7-day CFSE assay of peptide-induced CD4+ T-cell proliferation/activation within whole PBMC. The data set is classed as cell-based, human. The settings on record: screen of 25 new subjects.
A short description of data set [3]: Peptide solubility in buffers. The data set is classed as physicochemical.
In the next data set the test system is specific IgE. The settings on record: cited from earlier work.
The mark [4] stands for this setting: Table 4, dominant core T cell epitopes.

Turning to ELNEFENNQRSMSEALQ [10 + 10/11 core], the HLA-restriction entry in the data set on HLA-DR, HLA-DQ, HLA-DP (Table 7, 10 candidate peptides) was “HLA-DR; also recorded: or -DQ”.
On the same count and under the same terms, under “FQNLQNHRIVQIEAKPNTLV (listed as Arachis hypogaea) [Peptide 1]” stands “HLA-DR”.
Turning to “GDVFIMPAAHPVAINASS (listed as Arachis hypogaea) [57 core]”, the HLA-restriction result in the data set on HLA-DR, HLA-DQ, HLA-DP (setting [4]) is “HLA-DR; also recorded: HLA-DQ”; with HLA-DR, HLA-DQ, HLA-DP (Table 7, 10 candidate peptides), “HLA-DR; also recorded: HLA-DQ”.
With SQLERANLRPCEQ [4 core], in the data set with HLA-DR, HLA-DQ, HLA-DP, the “antibody that blocked T cell recognition of the epitope” value is on record as “anti-HLA-DP”. For the same molecule, the HLA-restriction result with HLA-DR, HLA-DQ, HLA-DP (setting [4]) is “HLA-DP”. Moreover, in data set [1], the “HLA allele presenting the epitope / present in all recognising subjects” value is listed as “DPB1*04:01”.
Turning to “RIVQIEAKPNTLV (listed as Arachis hypogaea) [24 core]”, in the data set on HLA-DR, HLA-DQ, HLA-DP (setting [4]), the HLA-restriction entry is recorded as “HLA-DR”.
For the molecule ELNEFENNQRCM [10 core], the HLA-restriction entry in the data set on HLA-DR, HLA-DQ, HLA-DP (setting [4]) is on record as “HLA-DR”.
As for WSTRSSENNEGVIVKVSKE [40 core], the HLA-restriction result in the data set on HLA-DR, HLA-DQ, HLA-DP (setting [4]) is “HLA-DQ”; in the data set with HLA-DR, HLA-DQ, HLA-DP (Table 7, 10 candidate peptides), “HLA-DQ”.
Consider ANLRPSEQHLM [Peptide 21], for which the “T cell responses compared with longer version containing an additional epitope” value in data set [2] is “Induced equivalent T cell”.
For the molecule KAMVIVVVNKGTGNLELVAV [51 ‘core’], the HLA-restriction entry is “HLA-DR” in the data set with HLA-DR, HLA-DQ, HLA-DP (setting [4]) and “HLA-DR” with HLA-DR, HLA-DQ, HLA-DP (Table 7, 10 candidate peptides).
Consider “NNFGKLFEVKPDKKNPQLQ (listed as Arachis hypogaea) [46 + 47 core]”, for which, in the data set with HLA-DR, HLA-DQ, HLA-DP (Table 7, 10 candidate peptides), the HLA-restriction result was “HLA-DR”.
“EVKPDKKNPQLQ (listed as Arachis hypogaea) [Peptide 15]”: in the data set with HLA-DR, HLA-DQ, HLA-DP (setting [4]), the HLA-restriction result is reported as “HLA-DR”. Besides, in data set [2], the “T cell responses compared with longer version containing an additional epitope” value was “Induced equivalent T cell”.
In the case of NNFGKLFEVKPDKKNPQ [46 core], the HLA-restriction result in the data set with HLA-DR, HLA-DQ, HLA-DP (setting [4]) is on record as “HLA-DR”.
Turning to “VEIKEGALMLPHFNSKA (listed as Arachis hypogaea) [Peptide 4]”, the HLA-restriction result with HLA-DR, HLA-DQ, HLA-DP (setting [4]) is given as “HLA-DQ”; with HLA-DR, HLA-DQ, HLA-DP (Table 7, 10 candidate peptides), “HLA-DQ”.
In the case of EFENNQRCMCEALQ [10/11 core], in the data set with HLA-DR, HLA-DQ, HLA-DP (setting [4]), the HLA-restriction entry is listed as “HLA-DQ”. In data set [1], the “HLA allele presenting the epitope / present in all recognising subjects” value is given as “DRB1*15:01” and the “HLA-binding degeneracy (presented by)” value was “multiple HLA-DQB1 molecules”.
Take EFENNQRSMSEALQ [Peptide 23]: the “T cell responses compared with longer version containing an additional epitope” value in data set [2] is given as “Induced equivalent T cell”.
On to “FQNLQNHRIV (listed as Arachis hypogaea) [23 core]”, for which, in the data set on HLA-DR, HLA-DQ, HLA-DP (setting [4]), the HLA-restriction result is recorded as “HLA-DR”.
As to ANLRPCEQHLM [4/5 core], the “antibody that blocked T cell recognition of the epitope” value with HLA-DR, HLA-DQ, HLA-DP was “anti-HLA-DR”. In the data set on HLA-DR, HLA-DQ, HLA-DP (setting [4]), the HLA-restriction result is recorded as “HLA-DR; also recorded: HLA-DQ”. Also, in data set [1], the “HLA-DR molecules presenting the epitope” value is “at least 2”, the “HLA allele presenting the epitope / present in all recognising subjects” value is listed as “HLA-DQB1*06:09” and the “HLA-binding degeneracy (presented by)” value is given as “multiple HLA-DRB1 molecules”.
As for RELRNLPQQCGLRA [15 core], the “antibody that blocked T cell recognition of the epitope” value in the data set on HLA-DR, HLA-DQ, HLA-DP was “anti-HLA-DR”. In addition, the “HLA-binding degeneracy (presented by)” value in data set [1] is listed as “multiple HLA-DRB1 molecules”.
Take “KAMVIVVVNKG (KAMVIVVVNKGTGNLELVAVD; listed as Arachis hypogaea) [50/51 core]”: in the data set on HLA-DR, HLA-DQ, HLA-DP (setting [4]), the HLA-restriction result is “HLA-DR”.
As to “GDVFIMPAAHPVAINASSE [Peptide 7, GDVFIMPAAHPVAINASSE]”, the “solubility of the version without the added C-terminal ‘E’” value in data set [3] was “insoluble except in toxic buffers”. Besides, the “solubility in PBS, 0.1M NH4HCO3, or 1-2% acetic acid” value in data set [3] (redesigned new version for peptide 7) is reported as “soluble; peptide 7 in Table 7)”.
In the case of ALMLPHFNSKAMVIVVV [50 core], the HLA-restriction entry is reported as “HLA-DR” in the data set on HLA-DR, HLA-DQ, HLA-DP (setting [4]) and “HLA-DR” in the data set on HLA-DR, HLA-DQ, HLA-DP (Table 7, 10 candidate peptides).

B1: Ara h 2: major peanut allergen, glycoprotein of the conglutin seed storage family (protein, listed as Arachis hypogaea)
chain: LTILVALALFLLAAHASARQQWELQGDRRCQSQLERANLRPCEQHLMQKIQRDEDSYERDPYSPSQDPYSPSPYDRRGAGSSQHQERCCNELNEFENNQRCMCEALQQIMENQSDRLQGRQQEQQFKRELRNLPQQCGLRAPQRCDLDVESGGRDRY
Consider B1, for which, in the data set on specific IgE (Burks et al, 1992), the “sera reactive with Ara h 2” value is 6 out of 6. Moreover, the “subjects with specific IgE to purified natural Ara h 2” value in the data set with specific IgE (de Jong's group) is given as “approximately 78%”. In the data set on specific IgE (western blotting of crude peanut extract, Clarke), the “subjects possessing specific IgE to Ara h 2” value is 71%. In addition, the “subjects possessing IgE towards recombinant form” value in the data set with specific IgE (western blotting, Kleber-Janke et al.) is 85%.
